What was measured:
Klebsielle pneuminiae II = experiment: Bacterial colony counts extracted from impregnated central venous catheters after incubation in bacterial suspension; assay type: cell-based, Klebsiella pneumoniae; conditions: catheter impregnated with 50 mg/ml, 10^5 cfu/ml suspension in TSB, 37° C., 24 hours
Description: In this example, segments of 7 French triple lumen polyurethane central venous catheters were impregnated with α-lipoic acid using the method described elsewhere (U.S. Pat. No. 6,589,591) and were subjected to zones of inhibition. Briefly, α-lipoic acid was dissolved in 88% formic acid (at a final solution concentration of 50 mg/ml). 85% ortho-Phosphoric acid and glycerol were then added to the solution at 79:8:13 (v/v/v) (formic acid:ortho-phosphoric acid:glycerol). After mixing the solution, 300 mg/ml of potassium chloride was added to the final solution and mixed.
Catheter segments were then placed in the impregnating solution at 55° C. with agitation for 1 hour in the dark. Catheter segments were then removed from the solution and dried under a fume hood overnight in the dark. Catheter segments were rinsed with deionized water the next day and let dry for another 18 hours in the dark. […]
(§1) Aliquots of each suspension and subsequent dilutions were cultured quantitatively.

common pathogens = experiment: Anticolonization activity of impregnated central venous catheters, overall result in words; assay type: cell-based; conditions: result in words summarising the culture results
Description: Catheter segments were then placed in the impregnating solution at 55° C. with agitation for 1 hour in the dark. Catheter segments were then removed from the solution and dried under a fume hood overnight in the dark. Catheter segments were rinsed with deionized water the next day and let dry for another 18 hours in the dark. After the impregnation process and drying, one-centimeter segments of impregnated catheters were individually placed in 1 ml of 10^5 cfu/ml suspensions of methicillin-sensitive Staphylococcus epidermidis (MSSE), methicillin-resistant Staphylococcus epidermidis (MRSE), methicillin-resistant Staphylococcus aureus (MRSA), Klebsiella pneumoniae, Escherichia coli, or Proteus mirabilis in trypticase soy broth (TSB) at 37° C. for 24 hours. One-centimeter segments of non-impregnated catheters were also incubated individually in each bacterial suspension at 37° C. for 24 hours as controls. Catheter segments were removed from each bacterial suspension after this period, shaken to remove excess broth containing free-floating bacteria from their surfaces, placed in 1 ml of normal saline, sonicated for 5 minutes, and vortexed for 30 seconds.
as §1
To evaluate the anticolonization/antimicrobial activity of central venous catheters treated with lipoamide, segments of 7 French triple lumen polyurethane central venous catheters were impregnated with lipoamide using the same patented method described in Example 1 (U.S. Pat. No. 6,589,591) with 100 mg/ml (final solution volume) of the agent. After the impregnation process and drying, Catheter segments were then placed in the impregnating solution at 55° C. with agitation for 1 hour in the dark. Catheter segments were then removed from the solution and dried under a fume hood overnight in the dark. Catheter segments were rinsed with deionized water the next day and let dry for another 18 hours in the dark. […]

[1] = test system: vancomycin-resistant Enterococcus (VRE); experiment: Zones of inhibition of impregnated catheter segments, modified Kirby-Bauer method; assay type: cell-based
Description: To evaluate the antimicrobial activity of central venous catheters treated with α-lipoic acid or its combination with gentamicin, segments of 7 French triple lumen polyurethane central venous catheters were impregnated with α-lipoic acid, gentamicin, or the combination of lipoic acid and gentamicin using the same patented method described in Example 1 with 50 mg/ml of each agent (for the final solution volume). After the impregnation process and drying, zones of inhibition were performed on one-centimeter segments according to a modified Kirby-Bauer method against MSSE, MRSE, MRSA, K. pneumoniae, E. coli, P. mirabilis, Pseudomonas aeruginosa, and Candida albicans. Each segment was half embedded in the center of a Muller-Hinton agar plate that had been previously inoculated with an individual organism. Prior to placing the catheter segments in agar, each organism was grown for 18 hours in TSB to a concentration of 0.5 McFarland (10^8 cfu/ml). A cotton swab was placed in the suspension and streaked across the surface of the Muller-Hinton agar plate to cover the entire plate. All plates were placed in a 37° C. incubator for 24 hours. Zones were measured in mm after the incubation period (Table 2).
To evaluate the antimicrobial activity of central venous catheters treated with lipoamide or its combination with levofloxacin, segments of 7 French triple lumen polyurethane central venous catheters were impregnated with levofloxacin or the combinations of lipoamide and levofloxacin using the same patented method described in Example 1 (U.S. Pat. No. 6,589,591) with 100 mg/ml (final solution volume) of each agent. […] Zones of inhibition were measured in mm after the incubation period (Table 4).
To evaluate the antimicrobial activity of central venous catheters treated with lipoamide or its combination with doxycycline, segments of 7 French triple lumen polyurethane central venous catheters were impregnated with doxycycline or the combinations of lipoamide and doxycycline using the same patented method described in Example 1 (U.S. Pat. No. 6,589,591) with 100 mg/ml (final solution volume) of each agent. […] Zones of inhibition were measured in mm after the incubation period (Table 5).
To evaluate the antimicrobial activity of central venous catheters treated with dihydrolipoic acid, segments of 7 French triple lumen polyurethane central venous catheters were impregnated with dihydrolipoic acid using the same patented method described in Example 1 (U.S. Pat. No. 6,589,591) with 25 mg/ml (final solution volume) of the agent. […] Zones of inhibition were measured in mm after the incubation period (Table 6).

| SMILES | Bacterial colony counts extracted from central venous catheters (Klebsielle pneuminiae II) | bacterial cells adhered to treated catheter segments compared to control uncoated catheter segments (common pathogens) | Zones of inhibition ([1]; catheter impregnated with 25 mg/ml of the agent) [mm] | zone of inhibition at 100000 µg/mL ([1]; Enterococcus, catheter impregnated with 100 mg/ml of each agent) [mm] |
| --- | --- | --- | --- | --- |
| O=C(O)CCCCC1CCSS1 (stereo not drawn) [Lipoic acid, 1,2-dithiolane-3-pentanoic acid] | 9.0 × 10^3 | substantially fewer or no bacterial cells adhered to them | – | – |
| O=C(O)CCCCC(S)CCS (stereo not drawn) [Dihydrolipoic acid, 6,8-dimercaptooctanoic acid] | – | substantially fewer bacterial cells adhered to them | 14 | – |
| NC(=O)CCCCC1CCSS1 (stereo not drawn) [Lipoamide, lipoamide] | – | substantially fewer or no bacterial cells adhered to them | – | 4 |

Reference: patent US9956319B2, “Compositions useful as antibiofilm or antimicrobial agents and methods using same” (BAYLOR COLLEGE OF MEDICINE, priority 2012, dated 2018)
